Like-named read-outs stand apart in the source and are kept apart here.
Assays:
[1] = Solid stability test (25°C, RH 60%, 30 days); type: physicochemical; settings: 25°C±2°C, relative humidity 60%±2%
Protocol: Experimental conditions: 25° C.±2° C., relative humidity 60%±2%
Experimental instrument: Agilent 1260 HPLC; chamber for stability test
Experimental method: each compound of the present disclosure was packaged (the inner packaging material was a penicillin bottle; the outer packaging material was a double-layer aluminum foil bag, and a desiccant was added inside and outside the package), placed in the chamber for stability test, at a temperature of 25° C.±2° C. and a relative humidity of 60%±2%. The degradation situation of the compounds for 30 days was examined. The contents of total impurities before and after 30 days of each compound were compared and the results were as follows: […]

[2] = Solubility test in deionized water (HPLC, external calibration); type: physicochemical; settings: for solubility at 30 min: 25 °C, thermodynamic from solid
Protocol: Experimental condition: 25±2° C.
Dissolving medium: deionized water
Experimental method: 1 mg voriconazole and appropriate amount of each compound were weighed, placed in 1 ml deionized water separately, shaken vigorously for 30 s every 5 mins for 30 mins.

[3] = Pharmacokinetics after single intravenous administration in rats (plasma voriconazole); settings: for T1/2 / AUClast: rat, in vivo, 2.5 mg/kg
Protocol: Dosage for administration: 2.5 mg/kg (calculated as voriconazole)
Dosing volume for administration: 2.5 ml/kg
Drug concentration: 1 mg/mL (calculated as voriconazole)
Route of administration: tail vein injection Experimental animals: SD rats, SPF grade, weighing 180-220 g, half male and half female; the SD rats were randomized into groups of 6 animals each, three males and three females in each group. Experimental method: Blood samples were collected at different time points after tail vein administration, and the plasma concentrations of voriconazole were measured.

[4] = tested on: Candida albicans ATCC10231; assay: Systemic fungal infection in mice, intravenous administration, survival; type: in vivo; settings: ICR mice, tail vein, 5 mg/kg (calculated as voriconazole) once daily for 5 days
Protocol: ICR mice, weighing 18-22 g, male, provided by the Hubei Experimental Animal Center.
The standard strain Candida albicans was purchased from the American Type Culture Collection, and the strain number was ATCC10231.
Before the experiment, a small amount of Candida albicans was picked from the SDA medium preserved at 4° C. by inoculation circle, and inoculated into 1 ml YPD (Yeast Extract Peptone Dextrose Medium, the same below) culture medium, under shake cultivation at 30° C., 200 rpm, activated for 16 hours to make the fungus in the late stage of the exponential growth phase. Blood cell counting plate was used to count. The concentration of the broth was adjusted to 1*10^3-5*10^3 CFU/ml with RPMI1640 (Roswell Park Memorial Institute 1640, the same below) culture medium. The Candida albicans monoclone on the SDA plate was picked and inoculated into 1 ml YPD medium, cultured at 35° C., 200 rpm for 16 hours to the late exponential growth phase, 1% of which was then inoculated in fresh medium for 6 hours, centrifuged at 1000×g for 5 mins, washed three times with saline until the supernatant was colorless, while hemocytometer was used to count. The cell concentration was adjusted to 5*10^6/ml. The tail vein injection of 0.1 ml/10 g was carried out to cause a systemic fungal infection in mice. The mice were randomized into groups of 10 each. Since voriconazole was insoluble in vehicle (physiological saline), the mice of the voriconazole group in the test were injected a commercially available voriconazole (Pfizer, product lot number Z467001), that is, sulfobutyl ether-β-cyclodextrin used as a solubilizer, while other groups used physiological saline as a solvent. After establishing a systemic fungal infection model in mice for 2 hours, each administration group was administered with 5 mg/kg (calculated as voriconazole) drug in the tail vein, with the volume for administration of 0.1 ml/10 g. The mice in the model group were administered 0.1 ml/10 g of 0.9% sodium chloride solution, once daily, for 5 consecutive days. The death situation of the mice was inspected and the survival time was recorded. After a total of 7 days of observation, all dead mice were treated with fire using ethanol.

Row | Compound | Content increase of total impurity (25° C., placed for 30 days) [1] | Solubility ([2]; deionized water, 25±2°C) | T1/2 [3] | other results
1 | CC(OC(=O)OCCS)[n+]1cnn(C[C@](O)(c2ccc(F)cc2F)[C@@H](C)c2ncncc2F)c1 (some centres unmarked) [Compound 16031] | 0.97% | – | – | –
2 | CC(OC(=O)N(C)c1ncccc1COC(=O)C[C@H](N)C(=O)O)[n+]1cnn(C[C@](O)(c2ccc(F)cc2F)[C@@H](C)c2ncncc2F)c1.[Cl-] (some centres unmarked) [QR16003] | 1.37% | >50 mg/mL | similar | –
3 | CC(OC(=O)N(C)c1ncccc1COC(=O)CCC(=O)[O-])[n+]1cnn(C[C@](O)(c2ccc(F)cc2F)[C@@H](C)c2ncncc2F)c1.[Cl-].[Na+] (some centres unmarked) [QR16004] | – | >50 mg/mL | – | survival rate of mice, day 1 ([4]; day 1): 100%; survival rate of mice, day 2 ([4]; day 2): 100%; survival rate of mice, day 3 ([4]; day 3): 100%; survival rate of mice, day 4 ([4]; day 4): 90%; survival rate of mice, day 5 ([4]; day 5): 90%; survival rate of mice, day 6 ([4]; day 6): 80%; AUClast [3]: 9586 ± 2352 ng·h/mL
4 | CC(OC(=O)N(C)c1ncccc1COC(=O)[C@@H](N)CCCN)[n+]1cnn(C[C@](O)(c2ccc(F)cc2F)[C@@H](C)c2ncncc2F)c1.Cl.Cl.Cl.[I-] (some centres unmarked) [QR16006] | 1.14% | >50 mg/mL | – | –
5 | CC(OC(=O)N(C)c1ncccc1COC(=O)[C@@H](N)CCCN)[n+]1cnn(C[C@](O)(c2ccc(F)cc2F)[C@@H](C)c2ncncc2F)c1.O=P([O-])(O)O (some centres unmarked) [QR16011] | 0.96% | >50 mg/mL | – | –
6 | CC(OC(=O)N(C)c1ncccc1COC(=O)[C@@H](N)CCCN)[n+]1cnn(C[C@](O)(c2ccc(F)cc2F)[C@@H](C)c2ncncc2F)c1.O=[N+]([O-])[O-] (some centres unmarked) [QR16012] | 0.92% | >50 mg/mL | – | –
7 | CC(OC(=O)N(C)c1ncccc1COC(=O)C(N)Cc1ccc(O)cc1)[n+]1cnn(CC(O)(c2ccc(F)cc2F)C(C)c2ncncc2F)c1.Cl.Cl.[Cl-] (centres unmarked) [QR16018] | 1.15% | >50 mg/mL | – | –
8 | CNCCC[C@H](N)C(=O)OCc1cccnc1N(C)C(=O)OC(C)[n+]1cnn(C[C@](O)(c2ccc(F)cc2F)[C@@H](C)c2ncncc2F)c1.[Cl-] (some centres unmarked) [QR16019] | 0.88% | >50 mg/mL | – | –
9 | CNCC[C@H](N)C(=O)OCc1cccnc1N(C)C(=O)OC(C)[n+]1cnn(C[C@](O)(c2ccc(F)cc2F)[C@@H](C)c2ncncc2F)c1 (some centres unmarked) [QR16021] | 1.14% | – | – | solubility at 30 min ([2]; deionized water, 25±2°C): > 50 mg/mL; AUClast ([3]; both, SD, iv): 7056 ± 2532 ng·h/mL
10 | CC(OC(=O)OCCCCOP(=O)(O)O)[n+]1cnn(C[C@](O)(c2ccc(F)cc2F)[C@@H](C)c2ncncc2F)c1 (some centres unmarked) [QR16024] | 2.84% | >50 mg/mL | similar | –
11 | CC(OC(=O)OCCCCCOP(=O)(O)O)[n+]1cnn(C[C@](O)(c2ccc(F)cc2F)[C@@H](C)c2ncncc2F)c1 (some centres unmarked) [QR16025] | 1.57% | >50 mg/mL | similar | –
12 | CC(OC(=O)OCCOCCOCCOP(=O)(O)O)[n+]1cnn(C[C@](O)(c2ccc(F)cc2F)[C@@H](C)c2ncncc2F)c1 (some centres unmarked) [QR16033] | – | >50 mg/mL | similar | –
13 | CC(OC(=O)SC[C@H](N)C(=O)O)[n+]1cnn(C[C@](O)(c2ccc(F)cc2F)[C@@H](C)c2ncncc2F)c1 (some centres unmarked) [QR16034] | – | – | similar | Solubility [2]: 12.5 mg/mL
14 | CC(OC(=O)NCC(=O)O)[n+]1cnn(C[C@](O)(c2ccc(F)cc2F)[C@@H](C)c2ncncc2F)c1 (some centres unmarked) [QR16038] | – | – | similar | –
15 | CC(OC(=O)NCC[C@H](N)C(=O)O)[n+]1cnn(C[C@](O)(c2ccc(F)cc2F)[C@@H](C)c2ncncc2F)c1.Cl.[Cl-] (some centres unmarked) [QR16039] | 1.22% | – | similar | –
16 | C[C@@H](c1ncncc1F)[C@](O)(Cn1c[n+](CC(=O)O)cn1)c1ccc(F)cc1F [QR16043] | – | – | similar | –
17 | CC(OC(=O)OCCOP(=O)(O)O)[n+]1cnn(C[C@](O)(c2ccc(F)cc2F)[C@@H](C)c2ncncc2F)c1 (some centres unmarked) [QR16046] | 0.79% | – | – | solubility at 30 min ([2]; deionized water, 25±2°C): > 50 mg/mL
18 | CC(OC(=O)N(C)c1ncccc1COC(=O)CN)[n+]1cnn(C[C@](O)(c2ccc(F)cc2F)[C@@H](C)c2ncncc2F)c1.O=S(=O)([O-])O (some centres unmarked) [SF16001] | 0.37% | >50 mg/mL | – | –
19 | CC(OC(=O)N(C)c1ncccc1COC(=O)[C@@H](N)CCCN)[n+]1cnn(C[C@](O)(c2ccc(F)cc2F)[C@@H](C)c2ncncc2F)c1 (some centres unmarked) [SF16002] | 0.67% | – | – | solubility at 30 min ([2]; deionized water, 25±2°C): > 50 mg/mL
20 | CC(OC(=O)N(C)c1ncccc1COC(=O)[C@@H](N)CCC(N)=O)[n+]1cnn(C[C@](O)(c2ccc(F)cc2F)[C@@H](C)c2ncncc2F)c1.O=S(=O)([O-])O (some centres unmarked) [SF16013] | 0.48% | – | – | –
21 | CC(OC(=O)N(C)c1ncccc1COC(=O)[C@@H](N)CC(N)=O)[n+]1cnn(C[C@](O)(c2ccc(F)cc2F)[C@@H](C)c2ncncc2F)c1.O=S(=O)([O-])O (some centres unmarked) [SF16014] | 0.36% | – | – | –
22 | CC(OC(=O)N(C)c1ncccc1COC(=O)[C@@H](N)CO)[n+]1cnn(C[C@](O)(c2ccc(F)cc2F)[C@@H](C)c2ncncc2F)c1.O=S(=O)([O-])O (some centres unmarked) [SF16015] | 0.32% | – | – | –
23 | CC(OC(=O)N(C)c1ncccc1COC(=O)[C@@H](N)[C@@H](C)O)[n+]1cnn(C[C@](O)(c2ccc(F)cc2F)[C@@H](C)c2ncncc2F)c1.O=S(=O)([O-])O (some centres unmarked) [SF16016] | 0.49% | – | – | –
24 | CC(OC(=O)N(C)c1ncccc1COC(=O)[C@@H](N)CCCCN)[n+]1cnn(C[C@](O)(c2ccc(F)cc2F)[C@@H](C)c2ncncc2F)c1 (some centres unmarked) [SF16017] | 0.46% | – | – | –
25 | CNCC(=O)OCc1cccnc1N(C)C(=O)OC(C)[n+]1cnn(C[C@](O)(c2ccc(F)cc2F)[C@@H](C)c2ncncc2F)c1.O=S(=O)([O-])O (some centres unmarked) [SF16020] | 0.62% | – | – | –
26 | C[C@@H](c1ncncc1F)[C@](O)(Cn1cncn1)c1ccc(F)cc1F [Voriconazole, reference compound] | – | – | – | solubility at 30 min ([2]; deionized water, 25±2°C): < 1 mg/mL; plasma concentration of voriconazole ([3]; control group of voriconazole dissolved in physiological saline, tail vein injection, SD rats): not detected

From patent US11040958B2, “Triazole antimicrobial derivative, pharmaceutical composition and use thereof” (priority 2017, dated 2021)
